Assay results: ChEMBL document CHEMBL3407366, “Original 2-(3-alkoxy-1H-pyrazol-1-yl)pyrimidine derivatives as inhibitors of human dihydroorotate dehydrogenase (DHODH)” (J Med Chem, 2015)
In brackets after ≈: the same amount, converted by molar mass. Activity calls are given as the source filed them. No cut-off for these calls is given here.

test system: HEK293; assay: Cytotoxicity against human HEK293 cells assessed as cell viability after 24 hrs by CellTiter-Glo assay; assay type: cell-based; settings: hek293, 24 h

Structure (SMILES)	Activity
CCOc1nn(-c2ncccn2)c(C)c1Cc1ccccc1	Non-toxic
CCOc1nn(-c2ccc(C)cn2)c(C)c1Cc1ccccc1	Non-toxic

target: Dihydroorotate dehydrogenase (quinone), mitochondrial (Homo sapiens, UniProt Q02127); assay: Inhibition of His-tagged human DHODH assessed as reduction of DCIP by spectrophotometry; settings: not given
Sequence (Q02127 whole entry): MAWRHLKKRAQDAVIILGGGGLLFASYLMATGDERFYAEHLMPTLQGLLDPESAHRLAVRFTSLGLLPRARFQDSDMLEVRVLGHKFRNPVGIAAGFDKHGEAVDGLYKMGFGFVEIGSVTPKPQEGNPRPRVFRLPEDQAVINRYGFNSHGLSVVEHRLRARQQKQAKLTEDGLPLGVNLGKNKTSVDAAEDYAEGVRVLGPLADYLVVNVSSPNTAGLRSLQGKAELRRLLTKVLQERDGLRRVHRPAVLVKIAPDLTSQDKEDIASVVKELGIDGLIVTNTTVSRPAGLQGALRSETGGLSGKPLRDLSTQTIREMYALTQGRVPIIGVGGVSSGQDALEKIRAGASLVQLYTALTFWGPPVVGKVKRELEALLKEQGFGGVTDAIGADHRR

IC50	Structure (SMILES)
126 nM	CCOc1nn(-c2ncc(CC)cn2)c(C)c1Oc1ccccc1Br
12.6 nM	Cc1c(Cc2ccccc2F)c(OC(C)C)nn1-c1ncc(C2CC2)cn1

test system: Measles morbillivirus; assay: Antiviral activity against measles virus expressing firefly luciferase rMV2/Luc infected in human HEK293 cells assessed as bioluminescence level at 16 to 195 nM after 6 mins by luminometry in presence of dihydroorotic acid; assay type: functional, organism-based; settings: not given

Structure (SMILES)	Activity
CCOc1nn(-c2ncc(CC)cn2)c(C)c1Cc1ccccc1	Active

test system: Measles morbillivirus; assay: Antiviral activity against Measles virus expressing firefly luciferase rMV2/Luc infected in human HEK293 cells assessed as bioluminescence level after 6 mins by luminometry; assay type: functional; settings: not given

Structure (SMILES)	pMIC50
CCC(CC)Oc1nn(-c2ncc(C3CC3)cn2)c(C)c1Cc1ccccc1	8.8
CCc1cnc(-n2nc(OCCOCc3ccccc3)c(Cc3ccccc3)c2C)nc1	7.3
Cc1c(Cc2ccccc2)c(O)nn1-c1ncc(C2CC2)cn1	5.6
CCOc1nn(-c2ncc(CC)cn2)c(C)c1C(=O)c1ccccc1	6.2
CCOc1nn(-c2ncc(CC)cn2)c(C)c1I	4.9
Cc1c(Oc2c(F)cccc2F)c(OC(C)C)nn1-c1ncc(Br)cn1	7.9
CCCCCc1cnc(-n2nc(OCC)c(Cc3ccccc3)c2C)nc1	<5
CCOc1nn(-c2ncc(CC)cn2)c(C)c1Oc1cc(Cl)ccc1Cl	7.6
CCOc1nn(-c2ncc(Br)cn2)c(C)c1Cc1ccccc1	7
CCc1ccc(-n2nc(OC(C)C)c(Cc3ccccc3)c2C)cc1	6.2
CCc1cnc(-n2nc(OC(C)C)c(Cc3ccc(F)cc3)c2C)nc1	7.4
COc1cnc(-n2nc(OC(C)C)c(Oc3c(F)cccc3F)c2C)nc1	7.3
CCc1cnc(-n2nc(OC(C)C)c(Cc3cccc(F)c3)c2C)nc1	8.2
CCc1cnc(-n2nc(OC(C)C)c(Oc3cc(F)ccc3F)c2C)nc1	7.3
CCOc1nn(-c2ncc(CC)cn2)c(C)c1Oc1ccccc1Cl	6.9
Cc1c(C(O)c2ccccc2)c(OC(C)C)nn1-c1ncc(C2CC2)cn1 (centres undefined)	8.8
COCc1c(Cc2ccccc2)c(OC(C)C)nn1-c1ncc(C2CC2)cn1	7.2
CCc1cnc(-n2nc(OC(C)C)c(Oc3c(F)cccc3F)c2C)nc1	9.1
Cc1c(Oc2c(F)cccc2F)c(OC(C)C)nn1-c1ncccn1	5.6
Cc1cnc(-n2nc(OC(C)C)c(Oc3c(F)cccc3F)c2C)nc1O	6.8
CCOc1nn(-c2ncc(CC)cn2)c(C)c1-c1ccccc1	5.4
CCC(C)Oc1nn(-c2ncc(C3CC3)cn2)c(C)c1Cc1ccccc1 (centres undefined)	8.7

Structure (SMILES)	pMIC50
CCc1cnc(-n2nc(OC(C)C)c(Oc3ccc(F)cc3)c2C)nc1	6.5
CCOc1nn(-c2ncc(CC)c(C)n2)c(C)c1Cc1ccccc1	7.4
CC(C)Oc1nn(-c2ncc(C3CC3)cn2)c(CN(C)C)c1Cc1ccccc1	<5
CCOc1nn(-c2ncc(C3CC3)cn2)c(C)c1Cc1ccccc1	7.6
CCOc1nn(-c2ncc(CC)cn2)c(C)c1Oc1ccccc1C(F)(F)F	6.2
CCN(CC)Cc1c(Cc2ccccc2)c(OC(C)C)nn1-c1ncc(C2CC2)cn1	5.1
Cc1c(Oc2c(F)cccc2F)c(OC(C)C)nn1-c1ncc(C2CC2)cn1	8.9
Cc1c(Cc2ccccc2)c(OC(C)C)nn1-c1ncc(C2CC2)cn1	8.2
CCOc1nn(-c2ncccn2)c(C)c1Cc1ccccc1	5.5
CCOc1nn(-c2ncc(CC)cn2)c(C)c1Oc1ccccc1	6.2
CCc1cnc(-n2nc(OCCO)c(Cc3ccccc3)c2C)nc1	6.6
CCc1cnc(-n2nc(OCCCN(C)C)c(Cc3ccccc3)c2C)nc1	6.1
CCc1cnc(-n2nc(OC(C)C)c(Oc3cccc(F)c3)c2C)nc1	6.6
CCOc1nn(-c2ncc(CC)cn2)c(C)c1Oc1ccc(C(F)(F)F)cc1	5.2
CCc1cnc(-n2nc(OC(C)C)c(Oc3ccccc3F)c2C)nc1	8.1
CCc1cnc(-n2nc(OC(C)C)c(Oc3c(F)cccc3F)c2C)nc1O	7.8
CCCc1cnc(-n2nc(OCC)c(Cc3ccccc3)c2C)nc1	7.5
CCCc1cnc(-n2nc(OC(C)C)c(Oc3c(F)cccc3F)c2C)nc1O	7.2
Cc1nn(-c2ncc(C3CC3)cn2)c(OC(C)C)c1Cc1ccccc1	6.8
CCOc1nn(-c2nccc(C)n2)c(C)c1Cc1ccccc1	6.1
CCc1cnc(-n2nc(O)c(Cc3ccccc3)c2C)nc1	6.3
CCOc1nn(-c2ncc(CC)cn2)c(C)c1Sc1ccccc1	6.9

Structure (SMILES)	pMIC50
COc1nn(-c2ncc(C3CC3)cn2)c(C)c1Cc1ccccc1	7.3
CCOc1nn(-c2ncc(CC)cn2)c(C)c1Oc1cccc(C(F)(F)F)c1	7.3
CCOc1nn(-c2ncc(CC)cn2)c(C)c1Oc1ccccc1Br	6.9
CCOc1nn(-c2ncc(CC)cn2)c(C)c1Oc1ccccc1F	7.2
CCc1cnc(-n2nc(OC(C)C)c(Cc3ccccc3F)c2C)nc1	8.8
Cc1c(Cc2ccccc2F)c(OC(C)C)nn1-c1ncc(C2CC2)cn1	8.9
CCc1cnc(-n2nc(OC(C)C)c(Oc3cccc(F)c3F)c2C)nc1	7.2
C/C(O)=C(\C#N)C(=O)Nc1ccc(C(F)(F)F)cc1 [TERIFLUNOMIDE]	5.3
CCOc1nn(-c2ccc(C)cn2)c(C)c1Cc1ccccc1	6.2
Cc1c(Oc2c(F)cccc2F)c(OC(C)C)nn1-c1nccc(O)n1	<5
Cc1c(Oc2c(F)cccc2F)c(OC(C)C)nn1-c1ncc(F)cn1	6.6
CCOc1nn(-c2ncc(C)cn2)c(C)c1Cc1ccccc1	7.5
CCc1cnc(-n2nc(OC(C)C)c(Cc3ccccc3)c2C)nc1	8.4
CCc1cnc(-n2nc(CC(C)C)c(Cc3ccccc3)c2C)nc1	7.5
Cc1cnc(-n2nc(OC(C)C)c(Oc3c(F)cccc3F)c2C)nc1	7.9
CCOc1nn(-c2ncc(CC)cn2)c(C)c1Oc1cccc(Cl)c1Cl	6.8
CCc1cnc(-n2nc(OC(C)C)c(Oc3ccc(F)cc3F)c2C)nc1	7.9
CCOc1nn(-c2ncc(OC)cn2)c(C)c1Cc1ccccc1	6.2
CCOc1nn(-c2ncc(CC)cn2)c(C)c1Cc1ccccc1	7.7
CCCc1cnc(-n2nc(OC(C)C)c(Oc3c(F)cccc3F)c2C)nc1	8.5
CCOc1nn(-c2ncc(CC)cn2)c(C)c1Oc1cc(Cl)cc(Cl)c1	5.9

same assay, conditions: Measles morbillivirus, 0.1 h

MIC50	Structure (SMILES)
2.72 µM (≈ 0.801 µg/mL)	CCOc1nn(-c2ncccn2)c(C)c1Cc1ccccc1
0.65 µM (≈ 0.2 µg/mL)	CCOc1nn(-c2ccc(C)cn2)c(C)c1Cc1ccccc1

test system: Measles morbillivirus; assay: Antiviral activity against measles virus expressing firefly luciferase rMV2/Luc infected in human HEK293 cells assessed as bioluminescence level at 16 to 195 nM after 6 mins by luminometry in presence of orotic acid; assay type: functional, organism-based; settings: not given

Structure (SMILES)	Activity
CCOc1nn(-c2ncc(CC)cn2)c(C)c1Cc1ccccc1	inactive

test system: Measles morbillivirus; assay: Antiviral activity against measles virus expressing firefly luciferase rMV2/Luc infected in human HEK293 cells assessed as bioluminescence level at 16 to 195 nM after 6 mins by luminometry in presence of uridine; assay type: functional, organism-based; settings: not given

Structure (SMILES)	Activity
CCOc1nn(-c2ncc(CC)cn2)c(C)c1Cc1ccccc1	inactive
